From patent US6218378A, “Anti-tumor agents comprising pyridyl-substituted metal-diphosphine complex” (priority 1994, dated 2001)

Tests used:
41M-cisR = test: cytotoxicity assay, sulforhodamine B; assay type: cell-based, human; conditions: 96 hrs, mean ± SD or individual values when n<3
Experimental: (§1) In Table 2, reference is made to cell lines 41M, 41M-cisR, SKOV-3, CH1 and CH1-cisR.
(§2) J. Cancer 69 1-7. The characteristics of the cell line pairs CH1/CH1 cisR, 41M/41McisR and 41M/SKOV3 are described in Table 3.
(§3) The cytotoxicity assay used sulforhodamine B which stains the basic amino acids. Cells (5000 or 2500 for SKOV-3) were seeded into 96 well microtitre plates (Linbro, Flow Laboratories Inc., USA) in 0.1 ml of medium. After an overnight incubation, the metal phosphine compounds were dissolved in 0.9% NaCl or ethanol and diluted with medium, were added at concentrations ranging from 0.005 to 50 μM to quadruplicate wells. After 96 hrs incubation, the medium was removed and cells were fixed in 0.2 ml of cold 10% (w/v) trichloroacetic acid (May & Baker Ltd., Dagenham, England) for 30 mins at 4° C. The plates were washed five times with tap water. Then 0.1 ml of 0.4% (w/v) sulforhodamine B (Sigma Chemical Co., St. Louis, USA) dissolved in 1% acetic acid (Ajax Chemicals, Australia) was added to the wells and left to stand at room temperature for 15 mins. The plates were then washed five times with 1% acetic acid and left to dry overnight. The next morning, 0.1 ml of 10 mM Tris buffer (Sigma Chemical Co., St. Louis, USA) was then added to each plate to solubilise the dye. Absorbance was read at a wavelength of 570 nm using a 96 well plate reader Dynatech MR 5000 plate reader. Absorbance of treatment cells was expressed as a percentage of positive (drug-free) controls. The results were plotted as percentage growth versus drug concentration.

41M = test: cytotoxicity assay, sulforhodamine B; assay type: cell-based, human; conditions: 96 hrs, mean ± SD or individual values when n<3
Experimental: as §1, §2, §3

CH1-cisR = test: cytotoxicity assay, sulforhodamine B; assay type: cell-based, human; conditions: 96 hrs, mean ± SD or individual values when n<3
Experimental: as §1, §2, §3

CH1 = test: cytotoxicity assay, sulforhodamine B; assay type: cell-based, human; conditions: 96 hrs, mean ± SD or individual values when n<3
Experimental: as §1, §2, §3

SKOV-3 = test: cytotoxicity assay, sulforhodamine B; assay type: cell-based, human; conditions: 96 hrs, mean ± SD or individual values when n<3
Experimental: as §1, §2, §3

PC9 = test: activity against cisplatin sensitive lung tumour PC9; assay type: cell-based, human; conditions: very preliminary data
Text: In Table 1, JAM and CI-80-13S are ovarian tumours, HeLa is a cervical tumour and MM96 is a melanoma In Table 2, all the tumours are ovarian tumours. […] In this regard, PC9 is a lung tumour and its derivation is discussed in Hong et al., 1993, Cancer Research 53 3302-3307 and Bungo et al., 1990, Cancer Research 50 2549-2553.

[1] = tested on: M5076 Reticulum Cell Sarcoma; conditions: Berners-Price et al. 1990; cited from earlier work

With `[Cl-].c1cc([P+]2(c3ccncc3)CC[P+](c3ccncc3)(c3ccncc3)[Au-3]23[P+](c2ccncc2)(c2ccncc2)CC[P+]3(c2ccncc2)c2ccncc2)ccn1` [[Au(d4pype)2]Cl] the IC50 (41M-cisR) was > 100 µM, the IC50 (41M) was > 100 µM and the IC50 (CH1-cisR) was 0.6 ± 0.2 µM. For the same molecule, the IC50 (CH1) was 0.4 ± 0.1 µM, the IC50 (SKOV-3) was > 100 µM and the IC50 (PC9; PC9 lung tumour) was 25 µM. The “activity against PC9” value (PC9; cisplatin sensitive lung tumour) was “modest activity” and the activity in mice [1] was “inactive”.
